In the kinase profiling compilation of Christmann-Franck et al. (2016):

Tests used:
Test in all cases: KINOMEscan competition binding
Conditions in all cases: compound 10.0 µM
CDK5 (human) = CDK5 (human) (UniProt Q00535)
PRKCD (human) = PRKCD (human) (UniProt Q05655)
SNRK (human) = SNRK (human) (UniProt Q9NRH2)
BMPR2 (human) = BMPR2 (human) (UniProt Q13873)
PRKACB (human) = PRKACB (human) (UniProt P22694)
MARK1 (human) = MARK1 (human) (UniProt Q9P0L2)
[1] = test system: RET (human), P07949 [V804L]
CDK14 (human) = CDK14 (human) (UniProt O94921)
GRK4 (human) = GRK4 (human) (UniProt P32298)
TXK (human) = TXK (human) (UniProt P42681)
IGF1R (human) = IGF1R (human) (UniProt P08069)
RIOK2 (human) = RIOK2 (human) (UniProt Q9BVS4)
CDC42BPA (human) = CDC42BPA (human) (UniProt Q5VT25)
MAPK13 (human) = MAPK13 (human) (UniProt O15264)
[2] = test system: EGFR (human), P00533 [G719C]
PRKAA1 (human) = PRKAA1 (human) (UniProt Q13131)
ADCK3 (human) = ADCK3 (human) (UniProt Q8NI60)
STK32A (human) = STK32A (human) (UniProt Q8WU08)
MAP4K1 (human) = MAP4K1 (human) (UniProt Q92918)
PDGFRA (human) = PDGFRA (human) (UniProt P16234)
BMPR1A (human) = BMPR1A (human) (UniProt P36894)
MAP3K10 (human) = MAP3K10 (human) (UniProt Q02779)
DAPK3 (human) = DAPK3 (human) (UniProt O43293)
CRK2 (P.falciparum) = CRK2 (P.falciparum) (UniProt P61075)
CLK2 (human) = CLK2 (human) (UniProt P49760)
NEK11 (human) = NEK11 (human) (UniProt Q8NG66)
TRPM6 (human) = TRPM6 (human) (UniProt Q9BX84)
MAPK4 (human) = MAPK4 (human) (UniProt P31152)
BRSK2 (human) = BRSK2 (human) (UniProt Q8IWQ3)
[3] = test system: PIK3CA (human), P42336 [H1047L]
TLK2 (human) = TLK2 (human) (UniProt Q86UE8)
MAPKAPK2 (human) = MAPKAPK2 (human) (UniProt P49137)
MAP3K15 (human) = MAP3K15 (human) (UniProt Q6ZN16)
EPHA3 (human) = EPHA3 (human) (UniProt P29320)
PIK3CG (human) = PIK3CG (human) (UniProt P48736)
PIM3 (human) = PIM3 (human) (UniProt Q86V86)
CLK1 (human) = CLK1 (human) (UniProt P49759)
EPHA8 (human) = EPHA8 (human) (UniProt P29322)
[4] = test system: FLT3 (human), P36888 [D835Y]
[5] = test system: BMX (human), P51813 [V600E]

CDK14 (human), sequence (O94921 whole entry, looked up): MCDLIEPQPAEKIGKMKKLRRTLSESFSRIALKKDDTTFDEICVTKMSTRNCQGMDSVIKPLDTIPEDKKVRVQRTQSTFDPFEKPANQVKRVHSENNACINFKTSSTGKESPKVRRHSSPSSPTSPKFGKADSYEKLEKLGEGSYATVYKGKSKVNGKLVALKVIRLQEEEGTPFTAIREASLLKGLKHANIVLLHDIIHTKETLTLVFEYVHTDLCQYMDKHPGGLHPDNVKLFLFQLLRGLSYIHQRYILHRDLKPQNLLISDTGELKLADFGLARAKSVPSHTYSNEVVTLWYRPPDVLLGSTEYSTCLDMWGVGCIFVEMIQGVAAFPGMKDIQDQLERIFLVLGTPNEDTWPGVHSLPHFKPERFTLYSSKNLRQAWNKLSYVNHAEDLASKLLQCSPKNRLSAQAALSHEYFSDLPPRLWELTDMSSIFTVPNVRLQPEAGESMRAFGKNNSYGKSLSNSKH
TLK2 (human), sequence (Q86UE8 whole entry, looked up): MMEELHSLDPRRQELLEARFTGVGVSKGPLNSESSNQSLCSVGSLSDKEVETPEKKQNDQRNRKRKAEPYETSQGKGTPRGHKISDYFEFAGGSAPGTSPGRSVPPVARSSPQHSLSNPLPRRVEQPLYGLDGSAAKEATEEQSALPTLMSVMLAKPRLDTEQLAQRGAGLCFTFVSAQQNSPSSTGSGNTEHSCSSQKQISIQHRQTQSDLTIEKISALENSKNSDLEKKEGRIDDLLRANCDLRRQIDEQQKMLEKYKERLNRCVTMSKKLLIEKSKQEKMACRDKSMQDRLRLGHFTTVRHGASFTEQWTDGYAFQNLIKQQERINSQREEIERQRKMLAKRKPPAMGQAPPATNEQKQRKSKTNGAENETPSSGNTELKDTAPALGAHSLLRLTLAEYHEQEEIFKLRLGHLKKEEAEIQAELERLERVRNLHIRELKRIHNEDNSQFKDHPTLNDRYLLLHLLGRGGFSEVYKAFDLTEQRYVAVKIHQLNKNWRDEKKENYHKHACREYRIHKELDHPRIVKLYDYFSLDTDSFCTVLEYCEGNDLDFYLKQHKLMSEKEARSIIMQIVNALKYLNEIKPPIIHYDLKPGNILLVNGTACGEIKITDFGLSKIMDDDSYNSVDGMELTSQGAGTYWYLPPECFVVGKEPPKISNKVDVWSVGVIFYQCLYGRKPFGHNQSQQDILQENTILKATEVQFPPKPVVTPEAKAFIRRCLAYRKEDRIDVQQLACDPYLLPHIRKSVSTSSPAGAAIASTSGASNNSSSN
PRKAA1 (human), sequence (Q13131 whole entry, looked up): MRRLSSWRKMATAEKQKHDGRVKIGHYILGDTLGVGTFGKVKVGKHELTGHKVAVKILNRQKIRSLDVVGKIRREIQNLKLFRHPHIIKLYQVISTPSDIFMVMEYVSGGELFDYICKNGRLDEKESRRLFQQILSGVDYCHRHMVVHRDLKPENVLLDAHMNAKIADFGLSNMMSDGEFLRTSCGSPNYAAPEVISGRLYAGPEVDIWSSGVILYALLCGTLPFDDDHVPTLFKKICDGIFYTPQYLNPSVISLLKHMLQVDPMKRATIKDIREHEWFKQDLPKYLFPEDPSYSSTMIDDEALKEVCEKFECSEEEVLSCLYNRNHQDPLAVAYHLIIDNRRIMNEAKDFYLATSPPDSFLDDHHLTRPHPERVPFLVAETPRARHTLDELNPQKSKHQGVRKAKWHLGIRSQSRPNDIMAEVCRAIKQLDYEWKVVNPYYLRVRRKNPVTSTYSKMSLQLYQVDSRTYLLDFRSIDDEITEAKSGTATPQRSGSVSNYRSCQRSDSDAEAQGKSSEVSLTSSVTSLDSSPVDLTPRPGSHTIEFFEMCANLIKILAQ
MAPK13 (human), sequence (O15264 whole entry, looked up): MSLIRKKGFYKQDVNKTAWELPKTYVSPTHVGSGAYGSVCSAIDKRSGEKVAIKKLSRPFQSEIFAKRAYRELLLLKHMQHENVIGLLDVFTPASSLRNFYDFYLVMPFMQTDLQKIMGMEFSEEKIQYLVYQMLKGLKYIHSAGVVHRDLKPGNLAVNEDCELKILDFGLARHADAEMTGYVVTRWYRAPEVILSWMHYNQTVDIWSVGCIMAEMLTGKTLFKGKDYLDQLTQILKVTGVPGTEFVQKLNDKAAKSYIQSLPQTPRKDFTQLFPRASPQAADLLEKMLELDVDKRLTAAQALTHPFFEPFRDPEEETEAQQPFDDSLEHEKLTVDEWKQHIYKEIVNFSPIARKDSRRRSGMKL
MAP4K1 (human), sequence (Q92918 whole entry, looked up): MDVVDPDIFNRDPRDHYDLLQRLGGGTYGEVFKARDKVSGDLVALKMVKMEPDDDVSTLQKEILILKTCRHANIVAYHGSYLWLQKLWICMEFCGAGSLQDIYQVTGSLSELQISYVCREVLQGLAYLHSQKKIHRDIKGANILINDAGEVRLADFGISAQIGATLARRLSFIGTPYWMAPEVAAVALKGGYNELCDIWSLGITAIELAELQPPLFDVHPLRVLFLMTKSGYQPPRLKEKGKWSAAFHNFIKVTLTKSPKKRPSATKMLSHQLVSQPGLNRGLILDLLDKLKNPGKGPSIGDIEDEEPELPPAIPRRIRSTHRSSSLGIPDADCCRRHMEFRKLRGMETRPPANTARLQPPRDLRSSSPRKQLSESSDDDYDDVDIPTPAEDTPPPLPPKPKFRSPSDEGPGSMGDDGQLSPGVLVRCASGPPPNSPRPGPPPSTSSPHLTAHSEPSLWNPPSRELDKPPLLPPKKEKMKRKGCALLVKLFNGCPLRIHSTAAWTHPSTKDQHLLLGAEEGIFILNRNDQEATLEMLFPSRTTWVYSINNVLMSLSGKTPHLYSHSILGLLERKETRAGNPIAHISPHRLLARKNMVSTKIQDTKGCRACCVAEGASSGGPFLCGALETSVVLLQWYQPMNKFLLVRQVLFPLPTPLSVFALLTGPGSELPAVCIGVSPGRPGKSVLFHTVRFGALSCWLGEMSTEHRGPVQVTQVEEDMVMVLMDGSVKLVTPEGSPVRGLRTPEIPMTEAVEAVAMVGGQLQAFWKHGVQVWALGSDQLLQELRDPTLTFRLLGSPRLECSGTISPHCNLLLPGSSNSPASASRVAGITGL
CLK2 (human), sequence (P49760 whole entry, looked up): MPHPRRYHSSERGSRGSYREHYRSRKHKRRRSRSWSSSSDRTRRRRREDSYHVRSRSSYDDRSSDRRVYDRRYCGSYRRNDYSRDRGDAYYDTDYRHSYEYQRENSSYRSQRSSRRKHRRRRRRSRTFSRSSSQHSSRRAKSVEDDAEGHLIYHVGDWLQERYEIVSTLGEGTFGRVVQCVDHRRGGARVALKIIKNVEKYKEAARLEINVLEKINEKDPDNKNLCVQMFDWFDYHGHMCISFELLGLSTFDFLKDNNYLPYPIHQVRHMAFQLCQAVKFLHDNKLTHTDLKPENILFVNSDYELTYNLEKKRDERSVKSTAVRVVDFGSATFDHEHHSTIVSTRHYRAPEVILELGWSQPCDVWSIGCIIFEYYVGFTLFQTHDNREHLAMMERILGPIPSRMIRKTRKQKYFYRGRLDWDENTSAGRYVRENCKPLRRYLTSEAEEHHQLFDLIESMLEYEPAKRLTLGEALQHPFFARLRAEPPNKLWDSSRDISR
CLK1 (human), sequence (P49759 whole entry, looked up): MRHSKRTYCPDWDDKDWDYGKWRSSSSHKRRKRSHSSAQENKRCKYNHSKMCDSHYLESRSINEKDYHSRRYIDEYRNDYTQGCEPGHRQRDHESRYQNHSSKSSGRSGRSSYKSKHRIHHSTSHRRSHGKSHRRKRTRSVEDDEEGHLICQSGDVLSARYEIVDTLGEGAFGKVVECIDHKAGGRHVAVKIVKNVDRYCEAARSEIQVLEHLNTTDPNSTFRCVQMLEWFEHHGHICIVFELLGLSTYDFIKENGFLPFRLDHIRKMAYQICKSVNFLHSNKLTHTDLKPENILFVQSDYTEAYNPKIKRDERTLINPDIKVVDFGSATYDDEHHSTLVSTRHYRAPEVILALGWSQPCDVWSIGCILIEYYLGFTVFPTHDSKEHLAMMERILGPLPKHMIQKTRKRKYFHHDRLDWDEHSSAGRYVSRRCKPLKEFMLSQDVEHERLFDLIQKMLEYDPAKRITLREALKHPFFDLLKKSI
STK32A (human), sequence (Q8WU08 whole entry, looked up): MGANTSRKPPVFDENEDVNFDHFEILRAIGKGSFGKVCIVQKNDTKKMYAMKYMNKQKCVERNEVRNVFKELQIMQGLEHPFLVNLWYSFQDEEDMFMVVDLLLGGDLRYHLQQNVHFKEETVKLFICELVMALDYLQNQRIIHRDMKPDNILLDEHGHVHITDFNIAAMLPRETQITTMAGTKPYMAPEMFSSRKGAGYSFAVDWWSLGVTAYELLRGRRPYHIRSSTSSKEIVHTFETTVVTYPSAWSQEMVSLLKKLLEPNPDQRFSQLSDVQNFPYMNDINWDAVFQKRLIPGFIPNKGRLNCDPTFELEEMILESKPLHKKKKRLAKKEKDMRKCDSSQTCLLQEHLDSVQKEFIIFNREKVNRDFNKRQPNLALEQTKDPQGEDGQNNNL
CRK2 (P.falciparum), sequence (P61075 whole entry, looked up): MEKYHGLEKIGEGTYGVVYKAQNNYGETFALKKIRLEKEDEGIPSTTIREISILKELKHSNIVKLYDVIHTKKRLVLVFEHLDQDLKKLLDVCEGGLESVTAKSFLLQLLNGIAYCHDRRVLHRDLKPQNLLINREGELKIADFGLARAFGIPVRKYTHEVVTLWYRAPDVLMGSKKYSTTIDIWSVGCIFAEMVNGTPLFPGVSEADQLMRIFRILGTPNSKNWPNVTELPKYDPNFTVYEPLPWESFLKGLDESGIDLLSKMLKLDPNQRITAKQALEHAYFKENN

SMILES | kinase still bound, per cent of control (CDK5 (human)) [%] | kinase still bound, per cent of control (PRKCD (human)) [%] | kinase still bound, per cent of control (SNRK (human)) [%] | kinase still bound, per cent of control (BMPR2 (human)) [%] | kinase still bound, per cent of control (PRKACB (human)) [%] | kinase still bound, per cent of control (MARK1 (human)) [%] | kinase still bound, per cent of control [1] [%] | kinase still bound, per cent of control (CDK14 (human)) [%] | kinase still bound, per cent of control (GRK4 (human)) [%] | kinase still bound, per cent of control (TXK (human)) [%] | kinase still bound, per cent of control (IGF1R (human)) [%] | kinase still bound, per cent of control (RIOK2 (human)) [%] | kinase still bound, per cent of control (CDC42BPA (human)) [%] | kinase still bound, per cent of control (MAPK13 (human)) [%] | kinase still bound, per cent of control [2] [%] | kinase still bound, per cent of control (PRKAA1 (human)) [%] | kinase still bound, per cent of control (ADCK3 (human)) [%] | kinase still bound, per cent of control (STK32A (human)) [%] | kinase still bound, per cent of control (MAP4K1 (human)) [%] | kinase still bound, per cent of control (PDGFRA (human)) [%] | further results
CCN1CCN(Cc2ccc(NC(=O)c3ccc(C)c(/C=C/c4cnc5[nH]ccc5c4OC)c3)cc2C(F)(F)F)CC1 | 100 | 49 | 95 | 6.6 | 100 | 94 | 0.1 | 72 | 8.2 | 0.7 | 100 | 19 | 15 | 22 | 0.05 | 20 | 100 | 100 | 0 | 0.15 | kinase still bound, per cent of control (BMPR1A (human)): 76%; kinase still bound, per cent of control (MAP3K10 (human)): 20%; kinase still bound, per cent of control (DAPK3 (human)): 99%; kinase still bound, per cent of control (CRK2 (P.falciparum)): 93%; kinase still bound, per cent of control (CLK2 (human)): 71%; kinase still bound, per cent of control (NEK11 (human)): 32%; kinase still bound, per cent of control (TRPM6 (human)): 100%; kinase still bound, per cent of control (MAPK4 (human)): 100%; kinase still bound, per cent of control (BRSK2 (human)): 100%; kinase still bound, per cent of control [3]: 100%; kinase still bound, per cent of control (TLK2 (human)): 93%; kinase still bound, per cent of control (MAPKAPK2 (human)): 100%; kinase still bound, per cent of control (MAP3K15 (human)): 100%; kinase still bound, per cent of control (EPHA3 (human)): 4.8%; kinase still bound, per cent of control (PIK3CG (human)): 96%; kinase still bound, per cent of control (PIM3 (human)): 100%; kinase still bound, per cent of control (CLK1 (human)): 14%; kinase still bound, per cent of control (EPHA8 (human)): 0.15%; kinase still bound, per cent of control [4]: 2.8%; kinase still bound, per cent of control [5]: 0.05%
CNC(=O)Nc1ccc(-c2nc(N3CC4CCC(C3)O4)c3cnn(C4CCC5(CC4)OCCO5)c3n2)cc1 | 88 | 100 | 100 | 83 | 87 | 100 | 85 | 94 | 100 | 94 | 93 | 90 | 100 | 16 | 80 | 94 | 86 | 99 | 94 | 80 | kinase still bound, per cent of control (BMPR1A (human)): 93%; kinase still bound, per cent of control (MAP3K10 (human)): 100%; kinase still bound, per cent of control (DAPK3 (human)): 100%; kinase still bound, per cent of control (CRK2 (P.falciparum)): 100%; kinase still bound, per cent of control (CLK2 (human)): 98%; kinase still bound, per cent of control (NEK11 (human)): 99%; kinase still bound, per cent of control (TRPM6 (human)): 100%; kinase still bound, per cent of control (MAPK4 (human)): 100%; kinase still bound, per cent of control (BRSK2 (human)): 100%; kinase still bound, per cent of control [3]: 15%; kinase still bound, per cent of control (TLK2 (human)): 100%; kinase still bound, per cent of control (MAPKAPK2 (human)): 82%; kinase still bound, per cent of control (MAP3K15 (human)): 100%; kinase still bound, per cent of control (EPHA3 (human)): 100%; kinase still bound, per cent of control (PIK3CG (human)): 72%; kinase still bound, per cent of control (PIM3 (human)): 100%; kinase still bound, per cent of control (CLK1 (human)): 29%; kinase still bound, per cent of control (EPHA8 (human)): 81%; kinase still bound, per cent of control [4]: 99%; kinase still bound, per cent of control [5]: 100%
O=c1[nH]c2ccccc2n1C1CCN(Cc2ccc(-c3nc4cc5[nH]cnc5cc4nc3-c3ccccc3)cc2)CC1 | 100 | 81 | 91 | 100 | 100 | 97 | 85 | 100 | 100 | 87 | 100 | 79 | 85 | 100 | 53 | 72 | 100 | 66 | 51 | 83 | kinase still bound, per cent of control (BMPR1A (human)): 77%; kinase still bound, per cent of control (MAP3K10 (human)): 84%; kinase still bound, per cent of control (DAPK3 (human)): 85%; kinase still bound, per cent of control (CRK2 (P.falciparum)): 100%; kinase still bound, per cent of control (CLK2 (human)): 90%; kinase still bound, per cent of control (NEK11 (human)): 100%; kinase still bound, per cent of control (TRPM6 (human)): 87%; kinase still bound, per cent of control (MAPK4 (human)): 100%; kinase still bound, per cent of control (BRSK2 (human)): 88%; kinase still bound, per cent of control [3]: 69%; kinase still bound, per cent of control (TLK2 (human)): 100%; kinase still bound, per cent of control (MAPKAPK2 (human)): 100%; kinase still bound, per cent of control (MAP3K15 (human)): 100%; kinase still bound, per cent of control (EPHA3 (human)): 82%; kinase still bound, per cent of control (PIK3CG (human)): 25%; kinase still bound, per cent of control (PIM3 (human)): 100%; kinase still bound, per cent of control (CLK1 (human)): 100%; kinase still bound, per cent of control (EPHA8 (human)): 95%; kinase still bound, per cent of control [4]: 51%; kinase still bound, per cent of control [5]: 84%
